Converted amounts (≈) assume the structure as drawn.
Columns and labels:
Prot.morg. 2241 [1] = assay: agar serial dilution test; format: cell-based; conditions: 24 h, agar serial dilution, 24 hours, 37° C.; read-out: minimal inhibitory concentration (MIC)
Salm.dubl. P 43 [2] = assay: agar serial dilution test; format: cell-based, Salmonella dublin; conditions: Salmonella enterica; agar serial dilution, 24 hours, 37° C.; read-out: minimal inhibitory concentration (MIC)
Prot.mirab. H 3 [3] = assay: agar serial dilution test; format: cell-based, Proteus mirabilis; conditions: Proteus mirabilis; agar serial dilution, 24 hours, 37° C.; read-out: minimal inhibitory concentration (MIC)
Prot.mirab. A 1200 [4] = assay: agar serial dilution test; format: cell-based, Proteus mirabilis; conditions: Proteus mirabilis, 24 h, agar serial dilution, 24 hours, 37° C.; read-out: minimal inhibitory concentration (MIC)
Past.multo. A 723 [5] = assay: agar serial dilution test; format: cell-based, Pasteurella multocida; conditions: Pasteurella multocida; agar serial dilution, 24 hours, 37° C.; read-out: minimal inhibitory concentration (MIC)
Strep.haem A 1088 = assay: agar serial dilution test; format: cell-based, Streptococcus haemolyticus; conditions: Streptococcus, A1088, 24 hours, 37° C., read-out: minimal inhibitory concentration (MIC)
Strep. faec. L 80 [6] = assay: agar serial dilution test; format: cell-based, Streptococcus faecalis; conditions: Enterococcus faecalis; agar serial dilution, 24 hours, 37° C.; read-out: minimal inhibitory concentration (MIC)
Staph.aureus A 355 [7] = assay: micro serial dilution test; format: cell-based, Staphylococcus aureus; conditions: Staphylococcus aureus, read-out: minimal inhibitory concentration (MIC)
Prot.mirab. A 1200 [8] = assay: micro serial dilution test; format: cell-based; conditions: Proteus mirabilis; micro serial dilution (in brackets), about 18 hours, 30° C. or 37° C.; read-out: minimal inhibitory concentration (MIC)
Staph.aureus A 355 [9] = assay: agar serial dilution test; conditions: Staphylococcus aureus, A355, 24 h, read-out: minimal inhibitory concentration (MIC), agar serial dilution, 24 hours, 37° C.; penicillinase-producing strain
Staph.aureus A 2000 [10] = assay: agar serial dilution test; format: cell-based, Staphylococcus aureus; conditions: Staphylococcus aureus, A2000, 24 h, agar serial dilution, 24 hours, 37° C.; read-out: minimal inhibitory concentration (MIC)
Prot.rettg. A 821 [11] = assay: agar serial dilution test; format: cell-based, Proteus rettgeri; conditions: Providencia rettgeri, 24 h, agar serial dilution, 24 hours, 37° C.; read-out: minimal inhibitory concentration (MIC)
Bac.Subt.ATCC 6633 [12] = assay: agar serial dilution test; format: cell-based, Bacillus subtilis; conditions: Bacillus subtilis, ATCC6633, 24 h, agar serial dilution, 24 hours, 37° C.; read-out: minimal inhibitory concentration (MIC)
[13] = tested on: Pseud.aerug. Wyeth A 1058; assay: agar serial dilution test; format: cell-based; conditions: agar serial dilution, 24 hours, 37° C.; read-out: minimal inhibitory concentration (MIC)
Pseud.aerug. H 10 [14] = assay: agar serial dilution test; format: cell-based; conditions: agar serial dilution, 24 hours, 37° C.; read-out: minimal inhibitory concentration (MIC)
Actinob.equ. T 3 = assay: agar serial dilution test; format: cell-based; conditions: 24 hours, 37° C., read-out: minimal inhibitory concentration (MIC)
Sarc. lutea ATCC 9341 = assay: agar serial dilution test; format: cell-based; conditions: Micrococcus luteus, ATCC9341, 24 hours, 37° C., read-out: minimal inhibitory concentration (MIC)
Staph.aureus A 2001 [15] = assay: micro serial dilution test; format: cell-based, Staphylococcus aureus; conditions: Staphylococcus aureus, A2001, 18 h, micro serial dilution (in brackets), about 18 hours, 30° C. or 37° C.; read-out: minimal inhibitory concentration (MIC)
Pseud.aerug. 2396 [16] = assay: agar serial dilution test; format: cell-based; conditions: agar serial dilution, 24 hours, 37° C.; read-out: minimal inhibitory concentration (MIC)
Esch.coli U 20 [17] = assay: agar serial dilution test; format: cell-based, Escherichia coli; conditions: Escherichia coli, U20; agar serial dilution, 24 hours, 37° C.; read-out: minimal inhibitory concentration (MIC)
Bruc. Suis A 2126 = assay: agar serial dilution test; format: cell-based; conditions: Brucella suis, 24 h, read-out: minimal inhibitory concentration (MIC)
Staph.aureus A 2001 [18] = assay: agar serial dilution test; format: cell-based, Staphylococcus aureus; conditions: Staphylococcus aureus, A2001, 24 h, agar serial dilution, 24 hours, 37° C.; read-out: minimal inhibitory concentration (MIC)
Staph.aureus A 2000 [19] = assay: micro serial dilution test; format: cell-based, Staphylococcus aureus; conditions: Staphylococcus aureus, A2000, 18 h, micro serial dilution (in brackets), about 18 hours, 30° C. or 37° C.; read-out: minimal inhibitory concentration (MIC)
Dipl.pneum. L 54 [20] = assay: agar serial dilution test; format: cell-based, Diplococcus pneumoniae; conditions: Streptococcus pneumoniae; agar serial dilution, 24 hours, 37° C.; read-out: minimal inhibitory concentration (MIC)
Salm.typh. R 172 = assay: agar serial dilution test; format: cell-based; conditions: 24 h, read-out: minimal inhibitory concentration (MIC)
Staph.aureus A 321 [21] = assay: agar serial dilution test; format: cell-based, Staphylococcus aureus; conditions: Staphylococcus aureus, A321, 24 h, agar serial dilution, 24 hours, 37° C.; read-out: minimal inhibitory concentration (MIC)
Prot.mirab. L 93 [22] = assay: agar serial dilution test; format: cell-based, Proteus mirabilis; conditions: Proteus mirabilis; agar serial dilution, 24 hours, 37° C.; read-out: minimal inhibitory concentration (MIC)
Kleb.pneum. A 809 [23] = assay: agar serial dilution test; format: cell-based, Klebsiella pneumoniae; conditions: Klebsiella pneumoniae; agar serial dilution, 24 hours, 37° C.; read-out: minimal inhibitory concentration (MIC)
Dipl.pneum. L 54 [24] = assay: micro serial dilution test; format: cell-based, Diplococcus pneumoniae; conditions: Streptococcus pneumoniae, 18 h, read-out: minimal inhibitory concentration (MIC)
Shig.equir. T 3 = assay: micro serial dilution test; format: cell-based; conditions: micro serial dilution (in brackets), about 18 hours, 30° C. or 37° C.; read-out: minimal inhibitory concentration (MIC)
From the text: Two drops of a stock solution of the test compound (antibiotic) in a known concentration were brought into the first hole of a test plate with 9 numbered holes with a sterile Pasteur pipette. After rinsing this pipette three times with a physiological NaCl-solution, two drops of a stock solution of the test organism in a culture medium were brought in all the holes except for hole 8. In the first hole, the solution of the tested compound had been half diluted, then by stirring the liquid in the first hole and adding two drops of this mixture to the second hole and so on until hole 8, dilutions of the test compound solution were obtained in geometrical progression. The hole 9 contained no antibiotic and served for checking the growth of the testogranism in a blank medium. The test plate was incubated at 30° C. or 37° C. for about 18 hours.

Bruc.melit. A 488 = assay: microbe, parasite or virus in culture; format: cell-based; conditions: Brucella melitensis, 18 h, read-out: minimal inhibitory concentration (MIC)
Bac.Subt.ATCC 6633 [25] = assay: micro serial dilution test; format: cell-based; conditions: Bacillus subtilis, ATCC6633, 18 h, read-out: minimal inhibitory concentration (MIC)
Salm.dubl. P 43 [26] = assay: micro serial dilution test; format: cell-based, Salmonella dublin; conditions: Salmonella enterica, 18 h, read-out: minimal inhibitory concentration (MIC)
Prot.mirab. H 3 [27] = assay: micro serial dilution test; format: cell-based; conditions: Proteus mirabilis, 18 h, read-out: minimal inhibitory concentration (MIC)
Pseud.aerug. H 10 [28] = assay: micro serial dilution test; format: cell-based; conditions: 18 h, read-out: minimal inhibitory concentration (MIC)
Haem.infl. A 1030 = assay: micro serial dilution test; format: cell-based; conditions: 18 h, read-out: minimal inhibitory concentration (MIC)
Prot.morg. 2241 [29] = assay: micro serial dilution test; format: cell-based; conditions: 18 h, read-out: minimal inhibitory concentration (MIC)
Strep.haem. A 266 = assay: micro serial dilution test; format: cell-based, Streptococcus haemolyticus; conditions: Streptococcus, 18 h, read-out: minimal inhibitory concentration (MIC)
Staph.aureus A 321 [30] = assay: micro serial dilution test; format: cell-based; conditions: Staphylococcus aureus, A321, 18 h, read-out: minimal inhibitory concentration (MIC)
Pseud.aerug. 2396 [31] = assay: micro serial dilution test; format: cell-based; conditions: 18 h, read-out: minimal inhibitory concentration (MIC)
Past.multo. A 723 [32] = assay: micro serial dilution test; format: cell-based; conditions: Pasteurella multocida, 18 h, read-out: minimal inhibitory concentration (MIC)
Prot.mirab. L 93 [33] = assay: micro serial dilution test; format: cell-based; conditions: Proteus mirabilis, 18 h, read-out: minimal inhibitory concentration (MIC)
Prot.rettg. A 821 [34] = assay: micro serial dilution test; format: cell-based, Proteus rettgeri; conditions: Providencia rettgeri, 18 h, read-out: minimal inhibitory concentration (MIC)
Esch.coli U 20 [35] = assay: micro serial dilution test; format: cell-based; conditions: Escherichia coli, U20, 18 h, read-out: minimal inhibitory concentration (MIC)
Kleb.pneum. A 809 [36] = assay: micro serial dilution test; format: cell-based; conditions: Klebsiella pneumoniae, 18 h, read-out: minimal inhibitory concentration (MIC)
[37] = tested on: Pseud.aerug. Wyeth A 1058; assay: micro serial dilution test; format: cell-based; conditions: 18 h, read-out: minimal inhibitory concentration (MIC)
Strep. faec. L 80 [38] = assay: micro serial dilution test; format: cell-based, Streptococcus faecalis; conditions: Enterococcus faecalis, 18 h, read-out: minimal inhibitory concentration (MIC)

## Cc1nc(CC(=O)N[C@@H]2C(=O)N3C(C(=O)O)=C(CSc4nnnn4C)CS[C@H]23)no1 [41 B, 7-[5-methyl-1,2,4-oxadiazol-3-yl-acetamido]-3-[1-methyl-tetrazol-5-yl-mercaptomethyl]-3-cephem-4-carboxylic acid]
Prot.morg. 2241 [1]
  MIC: 100 µg/mL (≈ 221 µM)
Salm.dubl. P 43 [2]
  MIC: 1.5 µg/mL (≈ 3.32 µM)
Prot.mirab. H 3 [3]
  MIC: 12.5 µg/mL (≈ 27.6 µM)
Prot.mirab. A 1200 [4]
  MIC: 25 µg/mL (≈ 55.3 µM)
Past.multo. A 723 [5]
  MIC: 1.5 µg/mL (≈ 3.32 µM)
Strep.haem A 1088
  MIC: 0.5 µg/mL (≈ 1.11 µM)
Strep. faec. L 80 [6]
  MIC: > 100 µg/mL
Staph.aureus A 355 [7]; A355, micro serial dilution (in brackets), about 18 hours, 30° C. or 37° C., penicillinase-producing strain
  MIC: 0.9 µg/mL (≈ 1.99 µM)
Prot.mirab. A 1200 [8]
  MIC: 5 µg/mL (≈ 11.1 µM)
Staph.aureus A 355 [9]
  MIC: 1 µg/mL (≈ 2.21 µM)
Staph.aureus A 2000 [10]
  MIC: 1 µg/mL (≈ 2.21 µM)
Prot.rettg. A 821 [11]
  MIC: 0.5 µg/mL (≈ 1.11 µM)
Bac.Subt.ATCC 6633 [12]
  MIC: 0.5 µg/mL (≈ 1.11 µM)
[13]
  MIC: 100 µg/mL (≈ 221 µM)
Pseud.aerug. H 10 [14]
  MIC: 100 µg/mL (≈ 221 µM)
Actinob.equ. T 3
  MIC: 0.5 µg/mL (≈ 1.11 µM)
Sarc. lutea ATCC 9341
  MIC: 0.5 µg/mL (≈ 1.11 µM)
Staph.aureus A 2001 [15]
  MIC: 0.6 µg/mL (≈ 1.33 µM)
Pseud.aerug. 2396 [16]
  MIC: 100 µg/mL (≈ 221 µM)
Esch.coli U 20 [17]
  MIC: 1.5 µg/mL (≈ 3.32 µM)
Bruc. Suis A 2126
  MIC: 1 µg/mL (≈ 2.21 µM)
Staph.aureus A 2001 [18]
  MIC: 0.5 µg/mL (≈ 1.11 µM)
Staph.aureus A 2000 [19]
  MIC: 0.6 µg/mL (≈ 1.33 µM)
Dipl.pneum. L 54 [20]
  MIC: 1.5 µg/mL (≈ 3.32 µM)
Salm.typh. R 172
  MIC: 1.5 µg/mL (≈ 3.32 µM)
Staph.aureus A 321 [21]
  MIC: 0.25 µg/mL (≈ 0.553 µM)
Prot.mirab. L 93 [22]
  MIC: 12.5 µg/mL (≈ 27.6 µM)
Kleb.pneum. A 809 [23]
  MIC: 1 µg/mL (≈ 2.21 µM)

## CC1(C)S[C@@H]2[C@H](NC(=O)COc3ccccc3)C(=O)N2[C@H]1C(=O)O [Penicillin V]
Dipl.pneum. L 54 [24]
  MIC: 1 µg/mL (≈ 2.85 µM)
Shig.equir. T 3
  MIC: 5 µg/mL (≈ 14.3 µM)
Bruc.melit. A 488
  MIC: 1 µg/mL (≈ 2.85 µM)
Bac.Subt.ATCC 6633 [25]
  MIC: 0.002 µg/mL (≈ 0.00571 µM)
Salm.dubl. P 43 [26]
  MIC: > 100 µg/mL
Prot.mirab. H 3 [27]
  MIC: 100 µg/mL (≈ 285 µM)
Staph.aureus A 355 [7]; A355, 18 h
  MIC: 25 µg/mL (≈ 71.3 µM)
Pseud.aerug. H 10 [28]
  MIC: > 100 µg/mL
Haem.infl. A 1030
  MIC: 1 µg/mL (≈ 2.85 µM)
Prot.morg. 2241 [29]
  MIC: > 100 µg/mL
Strep.haem. A 266
  MIC: 0.2 µg/mL (≈ 0.571 µM)
Staph.aureus A 321 [30]
  MIC: 0.045 µg/mL (≈ 0.128 µM)
Pseud.aerug. 2396 [31]
  MIC: 100 µg/mL (≈ 285 µM)
Past.multo. A 723 [32]
  MIC: 0.75 µg/mL (≈ 2.14 µM)
Prot.mirab. L 93 [33]
  MIC: 10 µg/mL (≈ 28.5 µM)
Prot.rettg. A 821 [34]
  MIC: 100 µg/mL (≈ 285 µM)
Esch.coli U 20 [35]
  MIC: 100 µg/mL (≈ 285 µM)
Kleb.pneum. A 809 [36]
  MIC: 100 µg/mL (≈ 285 µM)
[37]
  MIC: > 100 µg/mL
Strep. faec. L 80 [38]
  MIC: 5 µg/mL (≈ 14.3 µM)

From patent US4160829A, “Antibacterial 1,2,4-oxadiazolylacetamido cephalosporins” (Gist-Brocades N.V., priority 1972, dated 1979)
